Reference: ChEMBL document CHEMBL5715260, “Selectivity Literature for EUbOPEN Chemogenomic Library” (2024)
One block for each molecule: values may come before it.

What was measured:
[1] = target: Nuclear receptor subfamily 4immunitygroup A member 1 (Homo sapiens) (UniProt P22736); assay: Selectivity interaction (Reporter gene assay) EUB0001166a NR4A1; set-up: recommended concentration 1 uM
[2] = target: Steroidogenic factor 1 (Homo sapiens) (UniProt Q13285); assay: Selectivity interaction (Reporter gene assay) EUB0001166a NR5A1; set-up: recommended concentration 1 uM
Sequence of Steroidogenic factor 1 (Homo sapiens) (Q13285 whole entry): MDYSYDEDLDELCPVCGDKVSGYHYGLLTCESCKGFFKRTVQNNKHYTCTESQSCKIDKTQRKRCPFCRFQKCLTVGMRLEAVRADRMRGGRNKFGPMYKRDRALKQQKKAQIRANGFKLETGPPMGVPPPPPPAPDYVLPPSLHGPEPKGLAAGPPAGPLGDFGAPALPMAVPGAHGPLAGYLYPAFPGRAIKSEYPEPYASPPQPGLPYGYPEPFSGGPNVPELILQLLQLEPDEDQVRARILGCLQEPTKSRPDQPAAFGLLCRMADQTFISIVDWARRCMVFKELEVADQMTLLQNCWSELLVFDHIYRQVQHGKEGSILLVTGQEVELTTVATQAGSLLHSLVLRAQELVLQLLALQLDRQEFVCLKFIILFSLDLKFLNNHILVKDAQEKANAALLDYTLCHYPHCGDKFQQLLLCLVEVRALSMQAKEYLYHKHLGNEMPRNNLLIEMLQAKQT

[3] = target: T1, Alpha trans-inducing protein (Human alphaherpesvirus 1) (UniProt A0A5J6DW59); assay: Selectivity interaction (Reporter gene assay) EUB0001166a UL48; set-up: recommended concentration 1 uM
T1 sequence (A0A5J6DW59 as listed by the source): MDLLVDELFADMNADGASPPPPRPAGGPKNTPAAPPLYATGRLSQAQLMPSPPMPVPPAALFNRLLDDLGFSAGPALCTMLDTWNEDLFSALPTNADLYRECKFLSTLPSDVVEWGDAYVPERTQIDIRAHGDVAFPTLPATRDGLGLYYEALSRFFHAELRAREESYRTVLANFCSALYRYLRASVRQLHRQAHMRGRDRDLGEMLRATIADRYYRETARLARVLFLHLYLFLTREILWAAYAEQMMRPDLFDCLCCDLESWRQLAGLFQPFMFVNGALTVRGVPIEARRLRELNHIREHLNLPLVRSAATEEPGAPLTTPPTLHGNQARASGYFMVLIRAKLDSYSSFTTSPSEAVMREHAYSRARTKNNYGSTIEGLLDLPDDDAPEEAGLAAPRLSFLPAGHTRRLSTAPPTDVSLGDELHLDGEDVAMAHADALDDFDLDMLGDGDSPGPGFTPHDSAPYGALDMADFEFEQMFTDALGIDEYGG

[4] = target: T2, Nuclear receptor subfamily 2 group C member 1 (Homo sapiens) (UniProt P13056); assay: Selectivity interaction (Reporter gene assay) EUB0001166a NR2C1; set-up: recommended concentration 1 uM
T2 sequence (whole entry): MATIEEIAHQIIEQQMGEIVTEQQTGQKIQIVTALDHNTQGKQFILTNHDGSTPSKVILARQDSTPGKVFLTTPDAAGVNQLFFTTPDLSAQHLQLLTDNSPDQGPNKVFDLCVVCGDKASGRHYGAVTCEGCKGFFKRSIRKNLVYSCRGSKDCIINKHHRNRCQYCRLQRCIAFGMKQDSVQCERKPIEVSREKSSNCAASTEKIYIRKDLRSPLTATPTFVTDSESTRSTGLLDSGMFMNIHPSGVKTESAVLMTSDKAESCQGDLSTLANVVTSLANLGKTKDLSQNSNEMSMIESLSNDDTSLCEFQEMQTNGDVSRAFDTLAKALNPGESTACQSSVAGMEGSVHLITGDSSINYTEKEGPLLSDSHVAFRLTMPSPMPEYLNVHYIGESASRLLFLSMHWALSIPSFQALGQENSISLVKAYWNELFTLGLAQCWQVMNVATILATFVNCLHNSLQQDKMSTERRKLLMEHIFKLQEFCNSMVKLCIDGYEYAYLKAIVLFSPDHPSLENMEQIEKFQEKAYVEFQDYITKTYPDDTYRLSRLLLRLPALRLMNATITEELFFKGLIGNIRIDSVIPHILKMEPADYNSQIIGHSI

[5] = target: Nuclear receptor subfamily 2 group E member 1 (Homo sapiens) (UniProt Q9Y466); assay: Selectivity interaction (Reporter gene assay) EUB0001166a NR2E1; set-up: recommended concentration 1 uM
Sequence of Nuclear receptor subfamily 2 group E member 1 (Homo sapiens) (Q9Y466 whole entry): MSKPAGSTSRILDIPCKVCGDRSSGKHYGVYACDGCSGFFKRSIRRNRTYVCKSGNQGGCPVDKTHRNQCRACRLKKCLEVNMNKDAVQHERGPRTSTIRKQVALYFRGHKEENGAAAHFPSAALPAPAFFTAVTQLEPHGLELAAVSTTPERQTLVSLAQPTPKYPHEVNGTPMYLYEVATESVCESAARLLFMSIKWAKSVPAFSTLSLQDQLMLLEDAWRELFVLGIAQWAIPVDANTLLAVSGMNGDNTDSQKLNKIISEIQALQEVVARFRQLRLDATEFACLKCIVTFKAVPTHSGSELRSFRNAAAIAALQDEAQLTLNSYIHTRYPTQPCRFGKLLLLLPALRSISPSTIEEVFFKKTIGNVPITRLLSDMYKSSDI

[6] = target: T3, Hepatocyte nuclear factor 4-alpha (Homo sapiens) (UniProt P41235); assay: Selectivity interaction (Reporter gene assay) EUB0001166a HNF4A; set-up: recommended concentration 1 uM
T3 sequence (whole entry): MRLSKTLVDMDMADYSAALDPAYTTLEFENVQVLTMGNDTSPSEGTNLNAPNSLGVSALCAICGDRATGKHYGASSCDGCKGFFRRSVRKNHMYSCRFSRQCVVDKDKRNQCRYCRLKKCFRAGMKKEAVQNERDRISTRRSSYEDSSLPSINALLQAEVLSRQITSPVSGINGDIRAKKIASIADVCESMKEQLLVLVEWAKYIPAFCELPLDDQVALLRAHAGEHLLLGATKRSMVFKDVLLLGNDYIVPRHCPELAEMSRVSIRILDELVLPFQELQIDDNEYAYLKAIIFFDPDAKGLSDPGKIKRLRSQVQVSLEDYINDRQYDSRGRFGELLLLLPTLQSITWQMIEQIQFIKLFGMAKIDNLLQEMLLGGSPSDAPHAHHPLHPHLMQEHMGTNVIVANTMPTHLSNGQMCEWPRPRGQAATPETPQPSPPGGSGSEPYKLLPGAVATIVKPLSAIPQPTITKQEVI

[7] = target: T4, Retinoic acid receptor RXR-alpha (Homo sapiens) (UniProt P19793); assay: Selectivity interaction (Reporter gene assay) EUB0001166a RXRA; set-up: recommended concentration 1 uM; settings: reference bexarotene 1 uM, Selectivity number of off-targets 0.0, Selectivity number of targets 1.0, Source Knowledge inhouse
T4 sequence (whole entry): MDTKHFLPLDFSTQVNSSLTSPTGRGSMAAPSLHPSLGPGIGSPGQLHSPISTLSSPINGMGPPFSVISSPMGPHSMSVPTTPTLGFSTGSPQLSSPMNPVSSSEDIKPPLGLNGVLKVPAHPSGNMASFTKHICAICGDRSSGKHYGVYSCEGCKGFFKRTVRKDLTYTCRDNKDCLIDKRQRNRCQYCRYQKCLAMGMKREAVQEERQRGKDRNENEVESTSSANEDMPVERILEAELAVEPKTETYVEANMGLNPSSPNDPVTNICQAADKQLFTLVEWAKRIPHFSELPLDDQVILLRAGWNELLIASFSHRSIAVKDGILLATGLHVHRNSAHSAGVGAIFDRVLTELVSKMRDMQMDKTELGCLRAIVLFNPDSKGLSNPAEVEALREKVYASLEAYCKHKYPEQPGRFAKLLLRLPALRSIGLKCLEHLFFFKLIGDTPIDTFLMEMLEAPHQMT

[8] = target: Nuclear receptor subfamily 2 group E member 1 (Homo sapiens) (UniProt Q9Y466); assay: Selectivity interaction (Reporter gene assay) EUB0001163a NR2E1; set-up: recommended concentration 10 uM
[9] = target: T3, Hepatocyte nuclear factor 4-alpha (Homo sapiens); assay: Selectivity interaction (Reporter gene assay) EUB0001163a HNF4A; set-up: recommended concentration 10 uM
[10] = target: T4, Retinoic acid receptor RXR-alpha (Homo sapiens); assay: Selectivity interaction (Reporter gene assay) EUB0001163a RXRA; set-up: recommended concentration 10 uM; settings: reference bexarotene 1 uM, Selectivity number of off-targets 0.0, Selectivity number of targets 1.0, Source Knowledge inhouse
[11] = target: Nuclear receptor subfamily 4immunitygroup A member 1 (Homo sapiens) (UniProt P22736); assay: Selectivity interaction (Reporter gene assay) EUB0001163a NR4A1; set-up: recommended concentration 10 uM
[12] = target: T2, Nuclear receptor subfamily 2 group C member 1 (Homo sapiens); assay: Selectivity interaction (Reporter gene assay) EUB0001163a NR2C1; set-up: recommended concentration 10 uM
[13] = target: Steroidogenic factor 1 (Homo sapiens) (UniProt Q13285); assay: Selectivity interaction (Reporter gene assay) EUB0001163a NR5A1; set-up: recommended concentration 10 uM
[14] = target: T1, Alpha trans-inducing protein (Human alphaherpesvirus 1); assay: Selectivity interaction (Reporter gene assay) EUB0001163a UL48; set-up: recommended concentration 10 uM
[15] = target: Nuclear receptor ROR-alpha (Homo sapiens) (UniProt P35398); settings: screened at recom. conc., Selectivity number of off-targets 1.0, Selectivity number of targets 19.0, Source Knowledge inhouse
Sequence of Nuclear receptor ROR-alpha (Homo sapiens) (P35398 whole entry): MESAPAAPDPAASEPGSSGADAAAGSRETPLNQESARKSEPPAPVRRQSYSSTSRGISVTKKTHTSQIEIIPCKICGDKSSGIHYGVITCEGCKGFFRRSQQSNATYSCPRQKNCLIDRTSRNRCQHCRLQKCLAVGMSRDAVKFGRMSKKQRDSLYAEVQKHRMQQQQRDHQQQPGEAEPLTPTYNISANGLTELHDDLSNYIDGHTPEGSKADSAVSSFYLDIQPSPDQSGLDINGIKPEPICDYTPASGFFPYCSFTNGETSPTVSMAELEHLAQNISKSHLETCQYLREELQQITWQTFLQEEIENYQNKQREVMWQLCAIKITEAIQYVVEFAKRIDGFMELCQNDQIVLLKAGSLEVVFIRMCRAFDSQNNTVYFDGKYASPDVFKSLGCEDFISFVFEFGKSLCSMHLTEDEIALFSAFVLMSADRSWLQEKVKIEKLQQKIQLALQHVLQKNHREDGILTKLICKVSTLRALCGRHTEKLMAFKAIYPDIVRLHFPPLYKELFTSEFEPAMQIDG

[16] = target: T2, Nuclear receptor subfamily 2 group C member 1 (Homo sapiens); settings: screened at recom. conc., Selectivity number of off-targets 1.0, Selectivity number of targets 5.0, Source Knowledge inhouse
[17] = target: Nuclear receptor subfamily 2 group E member 1 (Homo sapiens) (UniProt Q9Y466)
[18] = target: Nuclear receptor subfamily 4immunitygroup A member 1 (Homo sapiens) (UniProt P22736)
[19] = target: Steroidogenic factor 1 (Homo sapiens) (UniProt Q13285); assay: Selectivity interaction (Reporter gene assay) EUB0001161a NR5A1; set-up: recommended concentration 10 uM
[20] = target: T1, Alpha trans-inducing protein (Human alphaherpesvirus 1); assay: Selectivity interaction (Reporter gene assay) EUB0001161a UL48; set-up: recommended concentration 10 uM
[21] = target: T3, Hepatocyte nuclear factor 4-alpha (Homo sapiens)
[22] = target: T4, Retinoic acid receptor RXR-alpha (Homo sapiens); assay: Selectivity interaction (Reporter gene assay) EUB0001167a RXRA; set-up: recommended concentration 1 uM; settings: reference bexarotene 1 uM, Selectivity number of off-targets 0.0, Selectivity number of targets 1.0, Source Knowledge inhouse
[23] = target: T1, Alpha trans-inducing protein (Human alphaherpesvirus 1); assay: Selectivity interaction (Reporter gene assay) EUB0001167a UL48; set-up: recommended concentration 1 uM
[24] = target: T3, Hepatocyte nuclear factor 4-alpha (Homo sapiens); assay: Selectivity interaction (Reporter gene assay) EUB0001167a HNF4A; set-up: recommended concentration 1 uM
[25] = target: Nuclear receptor subfamily 2 group E member 1 (Homo sapiens) (UniProt Q9Y466); assay: Selectivity interaction (Reporter gene assay) EUB0001167a NR2E1; set-up: recommended concentration 1 uM
[26] = target: Nuclear receptor subfamily 4immunitygroup A member 1 (Homo sapiens) (UniProt P22736); assay: Selectivity interaction (Reporter gene assay) EUB0001167a NR4A1; set-up: recommended concentration 1 uM
[27] = target: Steroidogenic factor 1 (Homo sapiens) (UniProt Q13285); assay: Selectivity interaction (Reporter gene assay) EUB0001167a NR5A1; set-up: recommended concentration 1 uM
[28] = target: T2, Nuclear receptor subfamily 2 group C member 1 (Homo sapiens); assay: Selectivity interaction (Reporter gene assay) EUB0001167a NR2C1; set-up: recommended concentration 1 uM
[29] = target: T2, Nuclear receptor subfamily 2 group C member 1 (Homo sapiens); assay: Selectivity interaction (Reporter gene assay) EUB0001157a NR2C1; set-up: recommended concentration 10 uM
[30] = target: T1, Alpha trans-inducing protein (Human alphaherpesvirus 1); assay: Selectivity interaction (Reporter gene assay) EUB0001157a UL48; set-up: recommended concentration 10 uM
[31] = target: Nuclear receptor subfamily 2 group E member 1 (Homo sapiens) (UniProt Q9Y466); assay: Selectivity interaction (Reporter gene assay) EUB0001157a NR2E1; set-up: recommended concentration 10 uM
[32] = target: Steroidogenic factor 1 (Homo sapiens) (UniProt Q13285); assay: Selectivity interaction (Reporter gene assay) EUB0001157a NR5A1; set-up: recommended concentration 10 uM
[33] = target: T3, Hepatocyte nuclear factor 4-alpha (Homo sapiens); assay: Selectivity interaction (Reporter gene assay) EUB0001157a HNF4A; set-up: recommended concentration 10 uM
[34] = target: T4, Retinoic acid receptor RXR-alpha (Homo sapiens); assay: Selectivity interaction (Reporter gene assay) EUB0001157a RXRA; set-up: recommended concentration 10 uM; settings: reference bexarotene 1 uM, Selectivity number of off-targets 0.0, Selectivity number of targets 1.0, Source Knowledge inhouse
[35] = target: Nuclear receptor subfamily 4immunitygroup A member 1 (Homo sapiens) (UniProt P22736); assay: Selectivity interaction (Reporter gene assay) EUB0001157a NR4A1; set-up: recommended concentration 10 uM

Sequence of Nuclear receptor subfamily 4immunitygroup A member 1 (Homo sapiens) (P22736 whole entry): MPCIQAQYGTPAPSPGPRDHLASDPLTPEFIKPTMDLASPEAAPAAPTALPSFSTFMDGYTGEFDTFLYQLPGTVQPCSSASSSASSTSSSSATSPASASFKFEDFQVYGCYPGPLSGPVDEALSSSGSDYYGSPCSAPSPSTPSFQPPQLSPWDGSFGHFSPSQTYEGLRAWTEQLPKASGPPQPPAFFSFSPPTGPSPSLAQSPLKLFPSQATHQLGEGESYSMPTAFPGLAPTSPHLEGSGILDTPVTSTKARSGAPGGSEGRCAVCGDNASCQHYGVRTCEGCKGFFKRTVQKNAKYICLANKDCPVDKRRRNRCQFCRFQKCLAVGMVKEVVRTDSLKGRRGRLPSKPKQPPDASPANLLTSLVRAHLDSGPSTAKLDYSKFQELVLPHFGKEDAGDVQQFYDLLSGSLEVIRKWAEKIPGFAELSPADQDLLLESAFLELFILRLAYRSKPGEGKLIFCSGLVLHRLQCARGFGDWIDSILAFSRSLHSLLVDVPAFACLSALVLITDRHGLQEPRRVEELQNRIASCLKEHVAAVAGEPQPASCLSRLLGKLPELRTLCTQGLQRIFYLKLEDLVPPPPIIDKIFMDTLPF

Compound: CC(C)(O)c1cn(-c2ccc(-c3cccc(S(C)(=O)=O)c3)cc2)c(C(C)(C)c2ccccc2Cl)n1
- Fold activation [1]: 1.01
- Fold activation [2]: 1.21
- P-value [3]: 0.000455
- Fold activation [4]: 1.38
- Remaining activity [5]: 0.931
- Fold activation [6]: 1.15
- Relative activation [7]: 0.459%

Compound: CC(=O)Oc1ccc2c(c1)[C@@]1(C)CCC[C@](C)(C(=O)OC(=O)[C@@]3(C)CCC[C@]4(C)c5cc(OC(C)=O)ccc5CC[C@@H]34)[C@@H]1CC2
- Relative activation [22]: 0.795%
- P-value [23]: 0.00117
- Remaining activity [24]: 0.928
- Fold activation [25]: 1.06
- Fold activation [26]: 1.11
- Remaining activity [27]: 0.86
- Fold activation [28]: 1.13

Compound: O=S(=O)(Nc1ccc(C(O)(C(F)(F)F)C(F)(F)F)cc1)c1cccs1
- Remaining activity [29]: 0.846
- P-value [30]: 0.00195
- Remaining activity [31]: 0.634
- Remaining activity [32]: 0.818
- Remaining activity [33]: 0.822
- Relative activation [34]: 0.211%
- Remaining activity [35]: 0.943

Now from value to molecule:

- Remaining activity [8]: 1.38
- Fold activation [9]: 1.08
- Relative activation [10]: 0.623%
- Remaining activity [11]: 1.21
- Fold activation [12]: 1.37
- Fold activation [13]: 1.16
- P-value [14]: 0.011
Compound: CCOC(=O)Nc1ccc2c(c1)N(C(=O)CN(CC)CC)c1ccccc1CC2

- Remaining activity [15]: 0.851
- Remaining activity [16]: 0.425
- Remaining activity [17]: 0.509
- Remaining activity [18]: 0.899
- Remaining activity [19]: 0.942
- P-value [20]: 0.000227
- Remaining activity [21]: 0.972
Compound: COc1cc(O)c(C(CC(=O)N2C[C@H](C)C[C@H](C)C2)c2ccc3c(c2)OCO3)c(OC)c1 (stereo not given in full)
